Four compounds from ChEMBL document CHEMBL4359925, “Rational discovery of a highly novel and selective mTOR inhibitor” (Bioorg Med Chem Lett, 2019) can be followed below.

What is called IC50 is the concentration that inhibits the measured activity by half.

Test [1] deals with Serine/threonine-protein kinase mTOR (Homo sapiens, UniProt P42345). As to the kind of experiment: Inhibition of human mTOR measured after 30 mins in presence of ATP by Lanthascreen TR-FRET assay. A general note: TR-FRET usually uses a lanthanide donor and a delayed reading to cut background.
The target in test [2] is Phosphatidylinositol 4,5-bisphosphate 3-kinase catalytic subunit alpha isoform (Homo sapiens, UniProt P42336). As to the kind of experiment: Inhibition of PI3K alpha (unknown origin).
Phosphatidylinositol 4,5-bisphosphate 3-kinase catalytic subunit alpha isoform, sequence (P42336 whole entry, canonical isoform): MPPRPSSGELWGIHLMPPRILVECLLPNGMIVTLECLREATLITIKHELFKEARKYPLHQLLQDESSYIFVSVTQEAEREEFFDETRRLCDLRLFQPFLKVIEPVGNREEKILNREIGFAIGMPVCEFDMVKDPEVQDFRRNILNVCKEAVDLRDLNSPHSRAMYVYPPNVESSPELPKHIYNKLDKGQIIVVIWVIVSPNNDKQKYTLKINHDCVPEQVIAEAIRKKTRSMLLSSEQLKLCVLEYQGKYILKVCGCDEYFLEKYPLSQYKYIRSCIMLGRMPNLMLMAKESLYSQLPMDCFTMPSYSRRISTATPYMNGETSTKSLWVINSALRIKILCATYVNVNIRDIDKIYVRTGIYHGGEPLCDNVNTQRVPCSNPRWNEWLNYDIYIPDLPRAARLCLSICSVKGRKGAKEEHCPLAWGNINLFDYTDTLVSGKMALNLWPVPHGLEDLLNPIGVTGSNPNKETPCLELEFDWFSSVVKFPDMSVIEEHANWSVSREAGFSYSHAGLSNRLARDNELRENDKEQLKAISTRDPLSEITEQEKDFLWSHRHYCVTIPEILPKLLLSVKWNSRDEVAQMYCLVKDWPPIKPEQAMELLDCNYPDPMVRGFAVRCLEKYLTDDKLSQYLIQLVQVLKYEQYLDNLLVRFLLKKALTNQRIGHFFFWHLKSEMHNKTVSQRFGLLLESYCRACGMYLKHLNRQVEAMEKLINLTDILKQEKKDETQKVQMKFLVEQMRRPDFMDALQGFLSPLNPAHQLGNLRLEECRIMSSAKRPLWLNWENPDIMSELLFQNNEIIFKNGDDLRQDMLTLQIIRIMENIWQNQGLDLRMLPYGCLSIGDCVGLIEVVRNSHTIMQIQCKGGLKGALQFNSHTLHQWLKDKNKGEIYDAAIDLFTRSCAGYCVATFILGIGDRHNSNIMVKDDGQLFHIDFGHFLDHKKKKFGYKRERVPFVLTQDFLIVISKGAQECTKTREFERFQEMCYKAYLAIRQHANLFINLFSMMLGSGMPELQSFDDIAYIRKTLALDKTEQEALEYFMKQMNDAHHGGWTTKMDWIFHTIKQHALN

As for `C[C@@]12COCCN1c1nc(-c3ccc(NC(=O)NC4CC4)cc3)ncc1N(CC1CC1)C2=O`, the IC50 in test [1] was 6.31 nM; in test [2], 794 nM.
For the compound `CNC(=O)Nc1ccc(-c2nc(C)c3nc4n(c3n2)CCOC4)cc1`, the IC50 in test [1] and in test [2] was 5010 nM in each case.
For the compound `CNC(=O)Nc1ccc(-c2ncc3c(n2)N2CCOCC2CC(=O)N3)cc1` (stereo not drawn), the IC50 in test [1] was 1580 nM; in test [2] it was 2510 nM.
As to `CNC(=O)Nc1ccc(-c2ncc3c(n2)N2CCOCC2CO3)cc1` (stereo not drawn), the results for the IC50 in test [1] and in test [2] were 501 nM and 50.1 nM, respectively.
